The values that follow come from patent US6271369A, “Chimeric molecules targeted to viral RNAs” (priority 1997, dated 2001).

“Also recorded” adds a separate entry of the source.

This data set deals with TAR:A25 :vif RNA. The data set can be described thus: Site-directed cleavage of TAR:A25:vif RNA in Daudi cell extract. The class given is biochemical, HIV-1. An excerpt:
To determine the ability of the 2-5A:AS chimeric molecule SEQ ID NO:1 to induce site-directed RNA cleavage, a target RNA was constructed having an internal 3',5'-oligo(rA) tract. Hybridization between the (dT18) in SEQ ID NO:1 with the oligo(rA) in the target RNA attracts 2-5A-dependent RNase to the target RNA, resulting in a highly specific cleavage event. The experimental target, TAR:A25 :vif RNA, was produced in vitro from a pSP64-derived plasmid containing a partial cDNA for the HIV vif protein interrupted with 25 adenylyl residues. A control TAR:vif RNA was constructed with the A25 tract deleted. These RNA species, which lack 3'-poly(rA) tails, were radiolabeled at their 3'-termini with [5'-^32 p)-pCp by T4 RNA ligase and gel purified prior to the assay.
The 2-5A:AS strategy for site-directed RNA cleavage was next tested in a cell-free system consisting of a postribosomal supernatant fraction of human lymphoblastoid Daudi cells.
Daudi cell extracts prepared with dounce homogenization were made by the well known method of Wreschner, et al. in a buffer containing 40mM KCl; 10 mM HEPES pH 7.5; 2.5mM magnesium acetate; 0.5mM ATP; 2.5% glycerol and 2.0mM mercaptoethanol. The extract used in the RNA cleavage assays was the supernatant of a 100,000 ×g centrifugation of cell extract. About 100 nM radiolabeled RNA (approximately 25,000 counts/min/assay) was incubated with oligonucleotides at 30° C. in extract (10μl) supplemented with 75mM KCl in a final volume of 20 μl. Reactions were terminated and the RNA was extracted with phenollchloroform. The RNA was then ethanol precipitated and redissolved in sterile water and an equal volume of formamide gel sample buffer. Cleavage products were analyzed in 6% polyacrylamide/8M urea gels (30×40×0.04cm).
The cleavage reaction was performed after adding SEQ ID NO:l and purified radiolabeled TAR:A25 :vif RNA to the Daudi cell extract (without preannealing) followed by incubation at 30° C. In the absence of added oligonucleotide, the TAR:A25 :vif RNA was degraded with a half-life of about 90 minutes.
An experiment was conducted to analyze (A) the in vitro transcription of AccI restriction endonuclease-digested plasmids containing TAR:A25 :vif and TAR:vif sequences and (B) the specific cleavage of TAR:A25 ;vif RNA induced by SEQ ID NO:1 (100nM) in extracts of Daudi cells as a function of time. The breakdown of TAR:A25 :vif RNA (intact RNA) was proportional to the appearance of the specific cleavage product. Data was obtained by running a gel with the products of the experiment and then making an autoradiogram of the dried gel. The autoradiogram was then subjected to image analysis with a video camera (Sierra Scientific) and the QUICKCAPTURE.COPYRGT. (Marlboro, Mass.) and IMAGE.COPYRGT. computer programs run on a MACINTOSH IIci.cndot. computer. The percentage of RNA shown in FIG. 6 was based on the sum of the intact RNA and the specific RNA cleavage product.
Cleavage of TAR:A25 :vif RNA (about 100 nM) as a function of SEQ ID NO:1 concentration was also measured. The cleavage reaction was allowed to continue for 30 minutes in Daudi cell extract at 30° C. The levels of the specific cleavage products (relative peak areas) were determined from an autoradiogram as described in relation to FIG. 6 above. The results shown in FIGS. 6 and 7 were reproduced three times.

Where [1] appears, read: about 100 nM RNA, 30 minutes, 30° C., FIG. 7.

As to “p5'A2'(p5'A2')2 P5'A2'p1[OCH2 (CH2)2 CH2 O]4p1[OCH2 (CH2)2 CH2 O]4p5'pdT3'(p5'dt3')16 p5'dt (AAAATTTTTTTTTTTTTTTTTT; chemistry not fully specified) [SEQ ID NO:1]”, under “100 nM, Daudi extract, 30° C., FIG. 6”, the “incubation time for 50% breakdown to the specific cleavage product” value stood at 20 min. Besides, the “incubation time after which breakdown to cleavage product could be seen clearly” value (Daudi extract, 30° C.) came out at 5 min. Also, the “specific cleavage of TAR:A25:vif RNA” value (Daudi extract, 30° C., 30 minutes) is on record as “nearly quantitative conversion of the intact RNA to a specific cleavage product; also recorded: Specific cleavage of the substrate was observed”. Under setting [1], the “lowest concentration at which cleavage reaction was observed” value turned out to be 25 nM and the “optimal concentration for the cleavage reaction” value is 250 nM. The “increase of rate of breakdown of TAR:A25:vif RNA” value (versus no added oligonucleotide (half-life about 90 minutes)) was “more than four-fold”.
